Source: patent US20220304978A1, “INHIBITING MESANGIAL CELL ACTIVATION” (Chinook Therapeutics, Inc., priority 2019, published 2022)

Test system: ET-1 stimulated HRMC
Test: Hallmark gene set enrichment in ET-1 stimulated HRMC treated with atrasentan
Details: g-ddY and HRMC model systems; HRMC: atrasentan 1 nM and 25 nM with ET-1

## CCCCN(CCCC)C(=O)CN1C[C@H](c2ccc3c(c2)OCO3)[C@@H](C(=O)O)[C@@H]1c1ccc(OC)cc1 [atrasentan, (2R,3R,4S)-4-(1,3-benzodioxol-5-yl)-1-[2-(dibutylamino)-2-oxoethyl]-2-(4-methoxyphenyl)pyrrolidine-3-carboxylic acid]
  expression of hallmark gene sets (negative enrichment scores): under-expression
